Results: patent publication US7332292B2, “Constitutively translocating cell line” (priority 2002, dated 2008)

System: angiotensin II type 1A receptor (AT1AR)
Assay: GRK2-C20 induced ligand-independent arrestinGFP translocation to the AT1AR in U2OS cells (INCell Analyzer)
Assay type: cell-based
Protocol: U2OS cells stably expressing arrestinGFP and the angiotensin II type 1A receptor (AT1 AR) were transiently transduced with human GRK2-C20 using a baculovirus expression system. A range of GRK2-C20 expression levels was obtained by using varying amounts (serial dilution) of the GRK2-C20 baculovirus.
To test whether the ligand-independent arrestinGFP translocation could be blocked by an antagonist/inverse agonist of the AT1AR, the cells were treated with losartan. Losartan is a nonpeptide molecule that functions as an antagonist/inverse agonist of the AT1AR. Losartan (1 μM final concentration) was added to the cells either immediately after transduction for an 18 hour incubation or 15 hours after transduction for a 3 hour incubation. At the end of the incubation, the cells were analyzed for arrestinGFP translocation using the INCell Analyzer system.

Q: For `CCCCc1nc(Cl)c(CO)n1Cc1ccc(-c2ccccc2-c2nnn[nH]2)cc1` [losartan, Losartan], which “effect on ligand-independent translocation of arrestinGFP to the AT1AR induced by expression of GRK2-C20” value (losartan 1 μM final concentration, 3 hour or 18 hour incubation, U2OS cells stably expressing arrestinGFP and AT1AR) is on record?
A: blocks the ligand-independent translocation of arrestinGFP to the AT1AR

Q: And the “inhibition of the ligand-independent translocation of arrestinGFP to the AT1AR” value (losartan 1 μM, 18 hour incubation, lower levels of GRK2-C20 expression (1:64, 1:128, and 1:256 dilutions of baculovirus))?
A: greater than 90%
